Assay: Crystallinity of the complex by powder X-ray diffraction (XRD)
Type: physicochemical
Conditions: PANalytical X'Pert Pro, percent crystallinity
Excerpt: “Crystallinity” means the degree to which a chemical entity is present in a crystalline form. This degree can be expressed in units such as percent crystallinity. X-Ray diffraction (“XRD”) techniques can be used to determine crystallinity of substances, including inventive substances. From an XRD spectra, the percent crystallinity may be calculated as: Percent crystallinity=(sum of net intensity)/(sum of observed intensity) where the sum of net intensity=integrated area of peak intensity above the baseline, and sum of observed intensity=integrated area of total peak intensity including sum of net intensity and integrated area under baseline. Additional information about use of XRD to determine percent crystallinity may be found in R. Jenkins et al., Introduction to X-Ray Powder Diffractometry, John Wiley & Sonds, Inc. (1996). Qualitative determination of crystallinity of the complex of Example 1 was conducted with PANalytical X'Pert Pro Powder X-ray Diffraction (XRD) System. […] The crystallinity of sodium lauryl sulfate was determined to be 32%, and the crystallinity of the physical mixture was determined to be 50%.

crystallinity | Structure (SMILES)
32% | CCCCCCCCCCCCOS(=O)(=O)[O-].[Na+] [sodium lauryl sulfate]
63% | OCCC#Cc1nc(-c2ccc(F)cc2)c(-c2ccncc2)n1CCCc1ccccc1 [4-(4-Fluorophenyl)-2-(4-hydroxy-1-butynyl)-1-(3-phenylpropyl)-5-(4-pyridyl)imidazole]

Reference: patent US20060134204A1, “Complexes made using low solubility drugs” (priority 2004, published 2006)
